According to publication PMC6076275, “Novel Arginine-containing Macrocyclic MMP Inhibitors: Synthesis, ^99mTc-labeling, and Evaluation” (Scientific Reports, 2018):
≈ marks a conversion by molar mass, not a printed value. Like-named read-outs stand apart in the source and are kept apart here.

What was measured:
[1] = target: Recombinant Human TACE/ADAM17 (Homo sapiens, UniProt P78536); assay: TACE inhibition assay, fluorogenic peptide substrate
rhMMP-12 [2] = target: T1, rhMMP-12 (Homo sapiens, UniProt P39900); assay: MMP inhibition assay, fluorogenic substrate cleavage kinetics; type: biochemical; conditions: mean ± SD of three experiments
T1 construct: purchased R&D Systems (Minneapolis, MN, USA)
Protocol: (§1) MMP inhibition assays were carried out based on the kinetic effects of an inhibitor on the MMP-mediated catalytic cleavage of a fluorogenic substrate, namely Mca-Lys-Pro-Leu-Gly-Leu-Dpa-Ala-Arg-NH2, as reported by others previously[9],[23],[28]. In the first set of studies, the inhibitory effect of RYM was evaluated against 5 activated recombinant human (rh)MMPs, including rhMMP-2, rhMMP-7, rhMMP-9, rhMMP-12, and rhMMP-13. […] RYM also had potent MMP inhibition with Ki values at nM concentrations.
Next, we evaluated the effect of ^99mTc-labeling on RYM MMP inhibition, using rhMMP-12 as a representative enzyme. A solution of ^99mTc-RYM1 prepared from 2 µg of RYM1 was decayed at −80 °C for two days, lyophilized, and re-dissolved in saline for MMP inhibition assays.
The recombinant human MMPs (rhMMPs) including rhMMP-2, rhMMP-7, rhMMP-9, rhMMP-12, and rhMMP-13 were purchased from R&D Systems (Minneapolis, MN, USA). […] The microplate fluorescence was measured at 320 nm (excitation) and 405 nm (emission) wavelengths for 30 min (1.44 min intervals, sensitivity 100, shaking intensity 4 and duration 30 s) by a fluorescent plate reader (BIO-TEK/Synergy HT) to generate the fluorescence kinetic curves and related mean velocity values (v), i.e. relative fluorescence units per min (RFU/min). […]

rhMMP-7 = target: T2, rhMMP-7 (Homo sapiens, UniProt P09237); assay: as above; type: biochemical; conditions: mean ± SD of three experiments
T2 construct: purchased R&D Systems (Minneapolis, MN, USA)
T2 sequence (P09237 95-267): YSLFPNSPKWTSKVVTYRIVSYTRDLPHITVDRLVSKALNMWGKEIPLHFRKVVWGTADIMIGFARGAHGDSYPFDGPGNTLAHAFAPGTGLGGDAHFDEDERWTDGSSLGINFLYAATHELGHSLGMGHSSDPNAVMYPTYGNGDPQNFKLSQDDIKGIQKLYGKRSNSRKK
Protocol: as §1
The recombinant human MMPs (rhMMPs) including rhMMP-2, rhMMP-7, rhMMP-9, rhMMP-12, and rhMMP-13 were purchased from R&D Systems (Minneapolis, MN, USA). […] The microplate fluorescence was measured at 320 nm (excitation) and 405 nm (emission) wavelengths for 30 min (1.44 min intervals, sensitivity 100, shaking intensity 4 and duration 30 s) by a fluorescent plate reader (BIO-TEK/Synergy HT) to generate the fluorescence kinetic curves and related mean velocity values (v), i.e. relative fluorescence units per min (RFU/min). Finally, the competitive inhibition constants (Ki value) were calculated from the mean velocity values, and related substrate (S) and inhibitor (I) concentrations using GraphPad Prism 6 by the following equation for competitive inhibition, where Vmax is the maximal velocity, the KM Michaelis-Menten constant: v=Vmax[S]/KM(1+[I]/Ki)+[S]

[3] = background statement, no own test described; cited from earlier work
rhMMP-13 = target: T3, rhMMP-13 (Homo sapiens, UniProt P45452); assay: MMP inhibition assay, fluorogenic substrate cleavage kinetics; type: biochemical
T3 construct: purchased R&D Systems (Minneapolis, MN, USA)
Protocol: (§2) MMP inhibition assays were carried out based on the kinetic effects of an inhibitor on the MMP-mediated catalytic cleavage of a fluorogenic substrate, namely Mca-Lys-Pro-Leu-Gly-Leu-Dpa-Ala-Arg-NH2, as reported by others previously[9],[23],[28]. In the first set of studies, the inhibitory effect of RYM was evaluated against 5 activated recombinant human (rh)MMPs, including rhMMP-2, rhMMP-7, rhMMP-9, rhMMP-12, and rhMMP-13.
(§3) The recombinant human MMPs (rhMMPs) including rhMMP-2, rhMMP-7, rhMMP-9, rhMMP-12, and rhMMP-13 were purchased from R&D Systems (Minneapolis, MN, USA). A buffer consisting of 50 mM Tris, 10 mM CaCl2, 150 mM NaCl, 0.05% Brij-35 (w/v) (pH 7.5, […]) was used for all the MMP assays. A mixture of the rhMMPs (500 ng, 9 µL in assay buffer) and p-aminophenylmercuric acetate (APMA, 1 µL, 10.0 mM in DMSO) was incubated at 37 °C (1 h/rhMMP-2, 2 h/rhMMP-7, 24 h/rhMMP-9, 4 h/rhMMP-12, and 2 h/rhMMP-13) according to the procedures described by R&D Systems. The activated MMPs were diluted to 500 µL in the assay buffer for inhibition assays. The assays were carried out in 96-well black non-binding surface microplates (Fisher Scientific). Seventy microliter (for inhibitor wells) and 80 µL (control wells) of the assay buffer were first added into each well as designed, followed by adding 10 µL (10 ng) of the activated MMP solutions into each well. The inhibitor solutions at 4 different concentrations (10 µL each well) were added into the corresponding inhibitor wells in the microplate which was then swirled at room temperature for 30 min. Ten microliter of the fluorogenic MMP substrate solutions (R&D SYSTEMS®) at 4 different concentrations (20.0, 30.0, 40.0, and 50.0 µM) in assay buffer were added into each well to make a total volume of 100 µL. […] Finally, the competitive inhibition constants (Ki value) were calculated from the mean velocity values, and related substrate (S) and inhibitor (I) concentrations using GraphPad Prism 6 by the following equation for competitive inhibition, where Vmax is the maximal velocity, the KM Michaelis-Menten constant: v=Vmax[S]/KM(1+[I]/Ki)+[S]

Water solubility = type: physicochemical; conditions: described as good water solubility
rhMMP-12 [4] = target: T1, rhMMP-12; parameters: method as in PMID 28360209; conditions: value marked with citation; cited from earlier work
rhMMP-2 = target: T4, rhMMP-2 (Homo sapiens, UniProt P08253); assay: MMP inhibition assay, fluorogenic substrate cleavage kinetics; type: biochemical; conditions: mean ± SD of three experiments
T4 construct: purchased R&D Systems (Minneapolis, MN, USA)
T4 sequence (P08253 110-660): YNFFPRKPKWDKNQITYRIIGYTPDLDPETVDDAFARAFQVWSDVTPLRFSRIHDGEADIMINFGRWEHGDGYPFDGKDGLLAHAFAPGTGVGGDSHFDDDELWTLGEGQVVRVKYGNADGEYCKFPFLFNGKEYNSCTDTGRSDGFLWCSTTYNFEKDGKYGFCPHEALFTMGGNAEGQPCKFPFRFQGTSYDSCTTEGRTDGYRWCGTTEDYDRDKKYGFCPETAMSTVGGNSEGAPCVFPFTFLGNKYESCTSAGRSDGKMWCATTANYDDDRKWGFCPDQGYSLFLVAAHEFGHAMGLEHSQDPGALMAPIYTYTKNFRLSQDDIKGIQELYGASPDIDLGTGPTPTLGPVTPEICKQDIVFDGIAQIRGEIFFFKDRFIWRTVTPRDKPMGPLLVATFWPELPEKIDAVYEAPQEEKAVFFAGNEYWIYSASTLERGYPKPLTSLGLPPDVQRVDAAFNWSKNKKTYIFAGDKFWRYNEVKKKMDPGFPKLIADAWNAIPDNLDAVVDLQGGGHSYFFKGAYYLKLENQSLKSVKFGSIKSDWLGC
Protocol: as §2, §3

rhMMP-9 = target: T5, rhMMP-9 (Homo sapiens, UniProt P14780); assay: as above; type: biochemical; conditions: mean ± SD of three experiments
T5 construct: purchased R&D Systems (Minneapolis, MN, USA)
Protocol: as §2, §3

T1 sequence (P39900 106-470): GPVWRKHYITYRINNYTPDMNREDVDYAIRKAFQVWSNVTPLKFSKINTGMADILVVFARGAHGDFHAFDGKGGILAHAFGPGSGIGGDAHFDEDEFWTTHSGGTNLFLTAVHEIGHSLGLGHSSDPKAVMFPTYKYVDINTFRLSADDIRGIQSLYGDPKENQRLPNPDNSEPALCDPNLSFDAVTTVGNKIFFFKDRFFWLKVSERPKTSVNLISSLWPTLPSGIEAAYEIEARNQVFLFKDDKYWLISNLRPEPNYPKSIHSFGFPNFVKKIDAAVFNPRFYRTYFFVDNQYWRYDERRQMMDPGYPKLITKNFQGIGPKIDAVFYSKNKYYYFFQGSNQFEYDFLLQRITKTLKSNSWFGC
Sequence of Recombinant Human TACE/ADAM17 (P78536 215-824): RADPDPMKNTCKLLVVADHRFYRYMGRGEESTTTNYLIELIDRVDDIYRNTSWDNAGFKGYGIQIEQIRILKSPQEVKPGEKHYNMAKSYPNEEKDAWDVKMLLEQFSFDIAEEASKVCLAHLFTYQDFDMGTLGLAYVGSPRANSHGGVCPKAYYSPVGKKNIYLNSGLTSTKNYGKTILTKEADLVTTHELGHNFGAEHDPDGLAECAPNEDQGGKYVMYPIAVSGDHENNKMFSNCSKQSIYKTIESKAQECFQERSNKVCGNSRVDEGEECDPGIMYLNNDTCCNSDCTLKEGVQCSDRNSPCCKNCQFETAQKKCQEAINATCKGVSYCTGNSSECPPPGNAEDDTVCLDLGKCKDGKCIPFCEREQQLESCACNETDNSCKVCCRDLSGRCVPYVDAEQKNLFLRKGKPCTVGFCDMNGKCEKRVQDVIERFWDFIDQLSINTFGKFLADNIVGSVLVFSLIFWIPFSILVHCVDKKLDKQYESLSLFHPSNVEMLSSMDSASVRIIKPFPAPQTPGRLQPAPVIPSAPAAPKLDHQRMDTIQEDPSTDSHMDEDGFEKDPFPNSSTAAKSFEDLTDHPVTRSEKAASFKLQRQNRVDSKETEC
T5 sequence (P14780 107-707 limits assumed): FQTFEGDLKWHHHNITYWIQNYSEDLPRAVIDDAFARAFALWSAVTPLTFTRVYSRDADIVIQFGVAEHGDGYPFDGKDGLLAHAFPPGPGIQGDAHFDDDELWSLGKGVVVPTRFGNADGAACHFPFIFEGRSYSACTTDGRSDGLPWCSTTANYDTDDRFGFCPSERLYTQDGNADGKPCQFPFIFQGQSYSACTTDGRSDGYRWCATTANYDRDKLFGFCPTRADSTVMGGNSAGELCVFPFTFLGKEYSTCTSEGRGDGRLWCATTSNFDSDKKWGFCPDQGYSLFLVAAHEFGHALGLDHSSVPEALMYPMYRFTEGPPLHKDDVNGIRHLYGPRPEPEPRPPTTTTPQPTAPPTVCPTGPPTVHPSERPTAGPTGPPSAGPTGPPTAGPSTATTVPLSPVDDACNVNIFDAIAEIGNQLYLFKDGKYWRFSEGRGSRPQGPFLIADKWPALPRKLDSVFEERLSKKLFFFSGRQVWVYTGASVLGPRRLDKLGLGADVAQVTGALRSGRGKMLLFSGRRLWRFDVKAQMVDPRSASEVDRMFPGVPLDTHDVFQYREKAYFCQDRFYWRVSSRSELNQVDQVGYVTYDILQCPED

SMILES | Ki [1] | Ki (rhMMP-12 [2]) | Ki (rhMMP-7) | water solubility (in words) [3] | solubility (Water solubility) | other results
CNC(=O)[C@H](Cc1c[nH]c2ccccc12)NC(=O)[C@@H](CC(=O)NO)CC(C)C [GM-6001, reference compound] | 113 ± 4.1 nM | 0.6 nM | 0.4 nM | very poor water solubility | – | Ki (rhMMP-13): 0.3 nM
CC(C)CC1C(=O)NC(C(=O)NCc2ccc(CNC(=O)c3ccc(NN)nc3)cc2)Cc2ccc(cc2)OCCCC1C(=O)NO (centres unmarked) [RP805 precursor] | – | – | – | poor water solubility | – | –
CC(C)CC1C(=O)NC(C(=O)NC(CCCNC(=N)N)C(=O)NCCNC(=O)c2ccc(NN)nc2)Cc2ccc(cc2)OCCCC1C(=O)NO [RYM1, (6 S,7 R,10 S)-N^10-((S)-5-guanidino-1-((2-(6-hydrazinylnicotinamido)ethyl)amino)-1-oxopentan-2-yl)-N^6-hydroxy-7-isobutyl-8-oxo-2-oxa-9-aza-1(1,4)-benzenacyclo undecaphane-6,10-dicarboxamide] | 8.6 ± 2.2 nM | – | – | – | 10000 µg/mL (≈ 13.8 mM) | Ki (rhMMP-12 [4]): 2.2 ± 0.5 nM
CNC(=O)C(CCCNC(=N)N)NC(=O)C1Cc2ccc(cc2)OCCCC(C(=O)NO)C(CC(C)C)C(=O)N1 (centres unmarked) [RYM] | 4.9 ± 1.3 nM | 1 ± 0.5 nM | 17.2 ± 0.1 nM | – | 10000 µg/mL (≈ 17.8 mM) | Ki (rhMMP-2): 5.8 ± 0.4 nM; Ki (rhMMP-13; mean ± SD of three experiments, read-out: Ki rhMMP-13): 15.3 ± 5.4 nM; Ki (rhMMP-9): 20.4 ± 2 nM
CNC(=O)[C@H](Cc1ccccc1)NC(=O)[C@H](CC(C)C)[C@H](CSc1cccs1)C(=O)NO [batimastat (BB-94), batimastat] | – | – | – | very poor water solubility | – | –
